According to patent US20240308996A1, “PYRIDOPYRIDINES AND DERIVATIVES THEREOF AS SELECTIVE KINASE INHIBITORS” (University of Sharjah, priority 2023, published 2024):

Tests used:
[1] = system: CCRF-CEM; assay: NCI-60 cell line panel: CCRF-CEM; format: cell-based; conditions: Leukemia
Experimental: (§1) It was carried out at the NCI, Bethesda, MD, USA, utilizing their standard protocol.

[2] = system: K-562; assay: NCI-60 cell line panel: K-562; format: cell-based; parameters: TGI: unit not given here
Experimental: as §1

[3] = system: RPMI-8226; assay: NCI-60 cell line panel: RPMI-8226; format: cell-based; conditions: Leukemia
Experimental: as §1

[4] = system: HOP-62; assay: NCI-60 cell line panel: HOP-62; format: cell-based; conditions: Non-Small Cell Lung Cancer
Experimental: as §1

[5] = system: HOP-92; assay: NCI-60 cell line panel: HOP-92; format: cell-based; parameters: TGI: unit not given here; conditions: Non-Small Cell Lung Cancer
Experimental: as §1

[6] = system: NCI-H226; assay: NCI-60 cell line panel: NCI-H226; format: cell-based; conditions: Non-Small Cell Lung Cancer
Experimental: as §1

[7] = system: NCI-H522; assay: NCI-60 cell line panel: NCI-H522; format: cell-based; parameters: TGI: unit not given here; conditions: Non-Small Cell Lung Cancer
Experimental: as §1

[8] = system: HCC-2998; assay: NCI-60 cell line panel: HCC-2998; format: cell-based; conditions: Colon Cancer
Experimental: as §1

[9] = system: HCT-15; assay: NCI-60 cell line panel: HCT-15; format: cell-based; conditions: Colon Cancer
Experimental: as §1

[10] = system: HT29; assay: NCI-60 cell line panel: HT29; format: cell-based
Experimental: as §1

[11] = system: SW-620; assay: NCI-60 cell line panel: SW-620; format: cell-based; conditions: Colon Cancer
Experimental: as §1

[12] = system: SF-268; assay: NCI-60 cell line panel: SF-268; format: cell-based; conditions: CNS Cancer
Experimental: as §1

[13] = system: SF-295; assay: NCI-60 cell line panel: SF-295; format: cell-based; conditions: CNS Cancer
Experimental: as §1

[14] = system: SF-539; assay: NCI-60 cell line panel: SF-539; format: cell-based; conditions: CNS Cancer
Experimental: as §1

[15] = system: SNB-75; assay: NCI-60 cell line panel: SNB-75; format: cell-based; parameters: TGI: unit not given here; conditions: CNS Cancer
Experimental: as §1

[16] = system: U251; assay: NCI-60 cell line panel: U251; format: cell-based; parameters: TGI: unit not given here
Experimental: as §1

[17] = system: MALME-3M; assay: NCI-60 cell line panel: MALME-3M; format: cell-based; conditions: Melanoma
Experimental: as §1

[18] = system: M14; assay: NCI-60 cell line panel: M14; format: cell-based; conditions: Melanoma
Experimental: as §1

[19] = system: MDA-MB-435; assay: NCI-60 cell line panel: MDA-MB-435; format: cell-based; parameters: TGI: unit not given here; conditions: Melanoma
Experimental: as §1

[20] = system: UACC-257; assay: NCI-60 cell line panel: UACC-257; format: cell-based; conditions: Melanoma
Experimental: as §1

[21] = system: IGROV1; assay: NCI-60 cell line panel: IGROV1; format: cell-based
Experimental: as §1

[22] = system: OVCAR-3; assay: NCI-60 cell line panel: OVCAR-3; format: cell-based; conditions: Ovarian Cancer
Experimental: as §1

[23] = system: OVCAR-5; assay: NCI-60 cell line panel: OVCAR-5; format: cell-based; conditions: Ovarian Cancer
Experimental: as §1

[24] = system: NCI/ADR-RES; assay: NCI-60 cell line panel: NCI/ADR-RES; format: cell-based; parameters: TGI: unit not given here; conditions: Ovarian Cancer
Experimental: as §1

[25] = system: RXF 393; assay: NCI-60 cell line panel: RXF 393; format: cell-based; conditions: Renal Cancer
Experimental: as §1

[26] = system: SN12C; assay: NCI-60 cell line panel: SN12C; format: cell-based; conditions: Renal Cancer
Experimental: as §1

[27] = system: DU-145; assay: NCI-60 cell line panel: DU-145; format: cell-based; conditions: Prostate Cancer
Experimental: as §1

[28] = system: MCF7; assay: NCI-60 cell line panel: MCF7; format: cell-based; conditions: Breast Cancer
Experimental: as §1

[29] = system: HS 578T; assay: NCI-60 cell line panel: HS 578T; format: cell-based
Experimental: as §1

[30] = target: PDGFRα (Homo sapiens, UniProt P16234); assay: Kinase IC50, PDGFRα
Sequence of PDGFRα (P16234 24-1089): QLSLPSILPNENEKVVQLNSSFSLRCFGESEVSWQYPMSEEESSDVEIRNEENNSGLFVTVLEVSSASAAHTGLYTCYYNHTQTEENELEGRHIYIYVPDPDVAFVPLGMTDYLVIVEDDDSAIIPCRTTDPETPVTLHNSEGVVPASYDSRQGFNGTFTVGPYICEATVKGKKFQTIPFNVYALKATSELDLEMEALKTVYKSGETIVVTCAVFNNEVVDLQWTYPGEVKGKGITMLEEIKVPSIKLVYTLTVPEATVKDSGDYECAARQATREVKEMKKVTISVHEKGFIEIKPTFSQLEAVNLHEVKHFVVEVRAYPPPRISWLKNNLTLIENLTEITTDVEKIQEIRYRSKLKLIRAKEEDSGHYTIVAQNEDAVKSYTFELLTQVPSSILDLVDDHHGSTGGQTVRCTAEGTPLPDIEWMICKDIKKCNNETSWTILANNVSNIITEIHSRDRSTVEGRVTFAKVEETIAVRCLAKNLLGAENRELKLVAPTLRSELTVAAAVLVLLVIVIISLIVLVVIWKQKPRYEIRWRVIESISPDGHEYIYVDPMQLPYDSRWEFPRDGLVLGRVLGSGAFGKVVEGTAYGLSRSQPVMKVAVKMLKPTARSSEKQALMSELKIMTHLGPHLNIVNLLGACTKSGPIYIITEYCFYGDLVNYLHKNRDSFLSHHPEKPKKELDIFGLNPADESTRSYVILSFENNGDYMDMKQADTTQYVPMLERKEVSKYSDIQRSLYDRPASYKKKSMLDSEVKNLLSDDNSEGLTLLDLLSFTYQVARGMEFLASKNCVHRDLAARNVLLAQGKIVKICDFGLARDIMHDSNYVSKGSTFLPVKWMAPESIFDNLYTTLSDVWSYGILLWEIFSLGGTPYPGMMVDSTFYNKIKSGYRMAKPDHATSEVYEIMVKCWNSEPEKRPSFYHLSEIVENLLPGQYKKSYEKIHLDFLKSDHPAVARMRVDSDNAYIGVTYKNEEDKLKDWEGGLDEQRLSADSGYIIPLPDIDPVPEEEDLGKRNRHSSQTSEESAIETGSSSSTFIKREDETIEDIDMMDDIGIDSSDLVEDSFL

CCN1CCN(c2ccc(NC(=O)Nc3ccc(-c4cc(C(=O)NC)c5ncccc5n4)cc3)cc2C(F)(F)F)CC1 [Compound 13c, 2-(4-(3-(4-(4-Ethylpiperazin-1-yl)-3-(trifluoromethyl)phenyl)ureido)phenyl)-N-methyl-1,5-naphthyridine-4-carboxamide]
IC50 ([1]; Homo sapiens): 460 nM | TGI ([1]; total growth inhibition): 1.27 µM | IC50 ([2]; Homo sapiens, K562, Leukemia): 660 nM | TGI ([2]; Leukemia, total growth inhibition): >18.0 | IC50 ([3]; Homo sapiens): 3.05 µM | TGI ([3]; total growth inhibition): > 18 µM | IC50 ([4]; Homo sapiens): 2790 nM | TGI ([4]; total growth inhibition): 5.41 µM | IC50 ([5]; Homo sapiens): 2450 nM | TGI ([5]; total growth inhibition): 5.67 | IC50 ([6]; Homo sapiens): 2700 nM | TGI ([6]; total growth inhibition): 6.36 µM | IC50 ([7]; Homo sapiens): 3.23 µM | TGI ([7]; total growth inhibition): 6.40 | TGI ([8]; total growth inhibition): 5.31 µM | IC50 ([8]; Homo sapiens): 2830 nM | TGI ([9]; total growth inhibition): 0.7 µM | IC50 ([9]; Homo sapiens): 330 nM | TGI ([10]; Colon Cancer, total growth inhibition): 2.11 µM | IC50 ([10]; Homo sapiens, HT-29, Colon Cancer): 530 nM | TGI ([11]; total growth inhibition): 0.62 µM | IC50 ([11]; Homo sapiens): 310 nM | TGI ([12]; total growth inhibition): 7 µM | IC50 ([12]; Homo sapiens): 3.09 µM | TGI ([13]; total growth inhibition, unit assumed): 4.47 µM | IC50 ([13]; Homo sapiens): 2060 nM | TGI ([14]; total growth inhibition): 4.57 µM | IC50 ([14]; Homo sapiens): 2300 nM | TGI ([15]; total growth inhibition): 3.82 | IC50 ([15]; Homo sapiens): 840 nM | TGI ([16]; CNS Cancer, total growth inhibition): 5.53 | IC50 ([16]; Homo sapiens, U-251, CNS Cancer): 2690 nM | IC50 ([17]; Homo sapiens): 290 nM | TGI ([17]; total growth inhibition, in µM (unit assumed)): 0.53 | IC50 ([18]; Homo sapiens): 400 nM | TGI ([18]; total growth inhibition): 1.05 µM | IC50 ([19]; Homo sapiens): 270 nM | TGI ([19]; total growth inhibition): 0.56 | IC50 ([20]; Homo sapiens): 3.05 µM | TGI ([20]; total growth inhibition): 5.99 µM | IC50 ([21]; Homo sapiens, IGROV-1, Ovarian Cancer): 3.01 µM | TGI ([21]; Ovarian Cancer, total growth inhibition): 5.61 µM | IC50 ([22]; Homo sapiens): 2540 nM | TGI ([22]; total growth inhibition): 5.06 µM | IC50 ([23]; Homo sapiens): 2820 nM | TGI ([23]; total growth inhibition): 5.23 µM | IC50 ([24]; Homo sapiens): 1780 nM | TGI ([24]; total growth inhibition): 8.09 | IC50 ([25]; Homo sapiens): 490 nM | TGI ([25]; total growth inhibition): 1.66 µM | IC50 ([26]; Homo sapiens): 2770 nM | TGI ([26]; total growth inhibition): 5.3 µM | IC50 ([27]; Homo sapiens): 2230 nM | TGI ([27]; total growth inhibition): 4.9 µM | TGI ([28]; total growth inhibition): 0.61 µM | IC50 ([28]; Homo sapiens): 290 nM | TGI ([29]; Breast Cancer, HS 578T, total growth inhibition): 6.88 µM | IC50 ([29]; Homo sapiens, Hs-578T): 2390 nM | IC50 [30]: 992.3 ± 0.6 nM
